According to patent US4631270A, “Therapeutically useful pseudopeptides, compositions containing the same and methods of preparation and use” (priority 1985, dated 1986):
Like-named read-outs stand apart in the source and are kept apart here.

Columns and labels:
[1] = system: repair-deficient strains of Bacillus subtilis; experiment: Mutagenicity test, variation of the Ames test (overall result); assay type: cell-based; details: results of Table 2b
Procedure: (§1) The mutagenicity of Gly .PSI. Leu and Gly .PSI. Ile was examined by a variation of the Ames test using repair-deficient strains of Bacillus subtilis.
(§2) The specific procedures by which these tests were conducted are described in the following references: […]

Wild type = experiment: Mutagenicity test, growth inhibition, wild type strain; assay type: cell-based, Bacillus subtilis; details: concentration 0.1 M
Procedure: as §1, §2

MC-1 = experiment: Mutagenicity test, growth inhibition, strain MC-1; assay type: cell-based, Bacillus subtilis; details: concentration 0.1 M
Procedure: as §1, §2

Hcr-9 = experiment: Mutagenicity test, growth inhibition, strain Hcr-9; assay type: cell-based, Bacillus subtilis
Procedure: as §1, §2

FB-13 = experiment: Mutagenicity test, growth inhibition, strain FB-13; assay type: cell-based, Bacillus subtilis; details: concentration 0.1 M
Procedure: as §1, §2

Pol A = experiment: Mutagenicity test, growth inhibition, strain Pol A; assay type: cell-based, Bacillus subtilis; details: concentration 0.1 M
Procedure: as §1, §2

Swiss Wistar mice = experiment: Acute toxicity and weight gain of Swiss Wistar mice injected I.P.; assay type: in vivo; details: dose levels 44-432 mg/Kg, five mice per dose level
Procedure: One example of the low toxicity of the compounds of this invention is the results achieved with mice on treatment with Gly .PSI. Leu. In the test Swiss Wistar mice were injected I.P. with Gly .PSI. Leu at the dose levels indicated below. Five mice were tested at each dose level. […] The behavior of the animals was observed closely for 7 days after injection.

[2] = system: methionine adenosyl transferase (MAT)
Source text: Possible mutagenic effects of pseudodipeptides were examined two ways. One possible route for a metabolic complication is via the action of methionine adenosyl transferase (MAT). Ethionine (which contains a thiomethylene linkage) is known to be both a carcinogen and a substrate for MAT.

[3] = rapid destruction by proteolysis; cited from earlier work

For CC[C@H](C)[C@H](SCCN)C(=O)O [Gly .PSI. Ile], the mutagenicity [1] was “neither Gly .PSI. Leu nor Gly .PSI. Ile behaves as a mutagen”, the “Growth Inhibition of Bacterial Strains in mm, Wild type” value (Wild type) was 0 mm and the “Growth Inhibition of Bacterial Strains in mm, MC-1” value (MC-1) was 0 mm. For the same compound, the “Growth Inhibition of Bacterial Strains in mm, Hcr-9” value (Hcr-9) was 0 mm, the “Growth Inhibition of Bacterial Strains in mm, FB-13” value (FB-13) was 0 mm and the “Growth Inhibition of Bacterial Strains in mm, Pol A” value (Pol A) was 0 mm.

With CC(C)CC(SCCN)C(=O)O (centres unmarked) [Gly .PSI. Leu, pseudoglycylleucine] the “signs of acute toxicity” value (Swiss Wistar mice) was “In no case did any of the mice show any signs of acute toxicity”, the Counts/Min transferred ([2]; Expt I, concentration 12 mM, None = 15,760) was 16,620 Counts/Min and the Counts/Min transferred ([2]; Expt II, concentration 80 mM, None = 7,380) was 7,990 Counts/Min. The “effect on MAT activity” value ([2]; possible substrate or competitive inhibitor of MAT) was “neither Gly .PSI. Leu nor Gly .PSI. D-Leu has a measurable effect on MAT activity”, the mutagenicity [1] was “neither Gly .PSI. Leu nor Gly .PSI. Ile behaves as a mutagen” and the “Growth Inhibition of Bacterial Strains in mm, Wild type” value (Wild type) was 0 mm. The “Growth Inhibition of Bacterial Strains in mm, MC-1” value (MC-1) was 0 mm, the “Growth Inhibition of Bacterial Strains in mm, Hcr-9” value (Hcr-9; concentration 0.1 M) was 0 mm and the “Growth Inhibition of Bacterial Strains in mm, FB-13” value (FB-13) was 0 mm. The “Growth Inhibition of Bacterial Strains in mm, Pol A” value (Pol A) was 0 mm.

For “pGlu-His-Trp-Ser-Tyr-Gly-Leu-Arg-Pro-Gly-NH2 [Luteinizing hormone-releasing hormone]”, the biological half-life [3] is given as 2 min.
